{
  "source": "the kinase profiling compilation of Christmann-Franck et al. (2016)",
  "test_in_all_cases": "radiometric filter-binding kinase assay",
  "key": {"[1]": {"system": "RPS6KB1 (human), P23443 [T412E]", "sequence (P23443 whole entry T412E, looked up)": "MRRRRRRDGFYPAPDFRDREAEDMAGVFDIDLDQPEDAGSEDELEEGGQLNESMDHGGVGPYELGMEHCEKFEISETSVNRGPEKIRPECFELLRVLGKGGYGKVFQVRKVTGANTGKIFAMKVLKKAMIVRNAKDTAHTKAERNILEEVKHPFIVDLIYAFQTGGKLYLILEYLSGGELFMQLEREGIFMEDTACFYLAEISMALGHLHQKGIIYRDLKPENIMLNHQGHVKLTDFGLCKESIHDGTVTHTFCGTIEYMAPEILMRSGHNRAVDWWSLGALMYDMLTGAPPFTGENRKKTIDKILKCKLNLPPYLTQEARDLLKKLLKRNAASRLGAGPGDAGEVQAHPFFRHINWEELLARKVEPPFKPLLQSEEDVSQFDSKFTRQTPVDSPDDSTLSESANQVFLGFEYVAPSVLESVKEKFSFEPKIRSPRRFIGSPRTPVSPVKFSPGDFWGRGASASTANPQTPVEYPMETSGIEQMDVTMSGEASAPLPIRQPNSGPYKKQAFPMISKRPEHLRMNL"}, "RPS6KA3 KD1 KD2 (human)": {"molecular_target": "RPS6KA3 KD1 KD2 (human) (UniProt P51812)"}, "BRSK2 (human)": {"molecular_target": "BRSK2 (human) (UniProt Q8IWQ3)", "sequence (Q8IWQ3 whole entry, looked up)": "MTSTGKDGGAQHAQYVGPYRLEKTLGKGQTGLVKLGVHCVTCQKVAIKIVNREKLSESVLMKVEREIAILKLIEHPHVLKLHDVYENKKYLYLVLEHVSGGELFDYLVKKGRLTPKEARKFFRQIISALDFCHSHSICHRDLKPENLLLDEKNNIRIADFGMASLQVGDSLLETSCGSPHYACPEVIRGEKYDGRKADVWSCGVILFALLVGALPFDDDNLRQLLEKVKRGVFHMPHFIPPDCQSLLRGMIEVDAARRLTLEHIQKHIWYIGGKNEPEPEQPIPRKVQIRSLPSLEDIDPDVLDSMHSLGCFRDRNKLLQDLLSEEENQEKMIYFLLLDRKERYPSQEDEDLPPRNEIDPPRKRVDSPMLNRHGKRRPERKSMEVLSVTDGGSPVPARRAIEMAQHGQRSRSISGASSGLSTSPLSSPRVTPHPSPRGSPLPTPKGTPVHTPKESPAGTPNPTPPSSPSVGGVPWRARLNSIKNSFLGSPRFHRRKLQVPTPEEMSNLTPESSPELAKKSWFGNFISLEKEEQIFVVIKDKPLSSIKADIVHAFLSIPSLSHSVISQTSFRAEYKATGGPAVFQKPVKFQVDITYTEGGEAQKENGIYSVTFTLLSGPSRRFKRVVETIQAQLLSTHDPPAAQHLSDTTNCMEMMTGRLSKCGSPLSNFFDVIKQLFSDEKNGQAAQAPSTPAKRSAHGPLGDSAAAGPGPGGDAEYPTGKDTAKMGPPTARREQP"}, "CDK2 CCNA2 (human)": {"molecular_target": "CDK2 CCNA2 (human) (UniProt P20248+P24941)"}, "CSNK1D (human)": {"molecular_target": "CSNK1D (human) (UniProt P48730)"}, "MYLK (human)": {"molecular_target": "MYLK (human) (UniProt Q15746)"}, "MELK (human)": {"molecular_target": "MELK (human) (UniProt Q14680)"}, "PIM3 (human)": {"molecular_target": "PIM3 (human) (UniProt Q86V86)"}, "MAPK12 (human)": {"molecular_target": "MAPK12 (human) (UniProt P53778)"}, "MAPK8 (human)": {"molecular_target": "MAPK8 (human) (UniProt P45983)"}, "SYK (human)": {"molecular_target": "SYK (human) (UniProt P43405)"}, "FLT1 (human)": {"molecular_target": "FLT1 (human) (UniProt P17948)", "sequence (P17948 whole entry, looked up)": "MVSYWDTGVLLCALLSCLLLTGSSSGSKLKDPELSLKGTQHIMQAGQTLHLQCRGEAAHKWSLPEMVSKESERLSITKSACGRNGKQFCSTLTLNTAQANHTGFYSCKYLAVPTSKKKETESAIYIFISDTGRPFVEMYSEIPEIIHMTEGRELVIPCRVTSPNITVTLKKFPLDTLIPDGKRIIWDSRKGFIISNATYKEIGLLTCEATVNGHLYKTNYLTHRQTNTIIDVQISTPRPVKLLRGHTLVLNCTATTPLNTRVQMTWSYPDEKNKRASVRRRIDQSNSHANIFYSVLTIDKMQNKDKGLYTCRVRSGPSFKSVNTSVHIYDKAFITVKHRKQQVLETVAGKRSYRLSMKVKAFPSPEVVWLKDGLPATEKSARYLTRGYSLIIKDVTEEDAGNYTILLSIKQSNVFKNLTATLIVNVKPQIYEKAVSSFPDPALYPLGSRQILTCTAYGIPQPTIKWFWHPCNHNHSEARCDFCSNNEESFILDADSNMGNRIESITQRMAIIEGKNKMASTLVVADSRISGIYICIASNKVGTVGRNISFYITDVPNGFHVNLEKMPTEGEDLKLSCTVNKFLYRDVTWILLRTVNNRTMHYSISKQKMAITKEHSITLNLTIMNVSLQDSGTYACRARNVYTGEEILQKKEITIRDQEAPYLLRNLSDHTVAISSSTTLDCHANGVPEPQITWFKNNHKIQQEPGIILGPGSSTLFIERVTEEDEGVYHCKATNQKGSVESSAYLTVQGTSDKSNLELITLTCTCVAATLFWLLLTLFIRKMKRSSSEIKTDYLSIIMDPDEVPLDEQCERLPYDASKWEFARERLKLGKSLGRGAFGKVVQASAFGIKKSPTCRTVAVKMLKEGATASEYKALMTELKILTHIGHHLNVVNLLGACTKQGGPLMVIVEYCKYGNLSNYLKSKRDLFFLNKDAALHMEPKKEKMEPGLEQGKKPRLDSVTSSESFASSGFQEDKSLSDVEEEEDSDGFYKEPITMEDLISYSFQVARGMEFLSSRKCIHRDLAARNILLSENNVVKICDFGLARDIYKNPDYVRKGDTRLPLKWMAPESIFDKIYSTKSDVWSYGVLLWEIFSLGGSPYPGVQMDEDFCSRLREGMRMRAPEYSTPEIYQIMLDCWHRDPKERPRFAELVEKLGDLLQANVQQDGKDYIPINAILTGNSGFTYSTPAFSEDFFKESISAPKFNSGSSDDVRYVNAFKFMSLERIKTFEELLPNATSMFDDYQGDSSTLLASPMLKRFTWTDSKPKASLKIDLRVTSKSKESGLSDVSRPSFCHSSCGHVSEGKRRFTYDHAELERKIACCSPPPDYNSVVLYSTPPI"}, "INSRR (human)": {"molecular_target": "INSRR (human) (UniProt P14616)", "sequence (P14616 whole entry, looked up)": "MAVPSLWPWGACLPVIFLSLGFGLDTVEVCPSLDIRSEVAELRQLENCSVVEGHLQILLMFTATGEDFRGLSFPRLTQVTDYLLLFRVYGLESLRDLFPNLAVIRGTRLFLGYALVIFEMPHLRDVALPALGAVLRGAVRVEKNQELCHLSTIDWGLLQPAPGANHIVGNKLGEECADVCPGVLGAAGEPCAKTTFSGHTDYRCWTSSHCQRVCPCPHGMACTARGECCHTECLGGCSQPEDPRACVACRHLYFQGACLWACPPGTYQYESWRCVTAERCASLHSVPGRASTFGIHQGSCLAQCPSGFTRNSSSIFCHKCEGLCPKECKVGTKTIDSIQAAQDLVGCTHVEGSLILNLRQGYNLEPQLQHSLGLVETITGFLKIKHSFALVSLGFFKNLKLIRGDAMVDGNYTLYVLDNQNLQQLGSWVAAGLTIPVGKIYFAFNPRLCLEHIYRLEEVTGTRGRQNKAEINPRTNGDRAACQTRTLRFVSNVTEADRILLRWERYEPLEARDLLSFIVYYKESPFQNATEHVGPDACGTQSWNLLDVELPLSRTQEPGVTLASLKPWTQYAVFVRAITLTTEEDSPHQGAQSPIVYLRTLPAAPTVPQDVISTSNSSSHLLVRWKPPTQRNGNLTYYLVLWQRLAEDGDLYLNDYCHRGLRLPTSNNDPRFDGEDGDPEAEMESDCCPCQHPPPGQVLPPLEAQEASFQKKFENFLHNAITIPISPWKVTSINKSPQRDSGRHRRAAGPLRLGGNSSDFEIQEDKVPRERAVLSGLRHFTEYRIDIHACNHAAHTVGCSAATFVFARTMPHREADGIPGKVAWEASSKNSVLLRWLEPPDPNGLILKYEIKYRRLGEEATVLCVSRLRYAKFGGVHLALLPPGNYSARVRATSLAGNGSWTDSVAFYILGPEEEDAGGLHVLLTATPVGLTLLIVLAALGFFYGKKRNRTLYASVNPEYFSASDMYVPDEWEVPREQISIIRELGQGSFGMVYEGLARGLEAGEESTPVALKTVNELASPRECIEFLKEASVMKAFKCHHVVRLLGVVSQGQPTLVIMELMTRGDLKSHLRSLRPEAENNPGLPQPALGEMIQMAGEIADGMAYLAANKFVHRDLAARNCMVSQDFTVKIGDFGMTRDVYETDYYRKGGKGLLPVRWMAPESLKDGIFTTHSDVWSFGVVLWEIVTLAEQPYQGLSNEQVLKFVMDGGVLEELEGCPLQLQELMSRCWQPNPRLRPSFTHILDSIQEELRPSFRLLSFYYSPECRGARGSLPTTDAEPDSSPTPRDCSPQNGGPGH"}, "PIM1 (human)": {"molecular_target": "PIM1 (human) (UniProt P11309)", "sequence (P11309 whole entry, looked up)": "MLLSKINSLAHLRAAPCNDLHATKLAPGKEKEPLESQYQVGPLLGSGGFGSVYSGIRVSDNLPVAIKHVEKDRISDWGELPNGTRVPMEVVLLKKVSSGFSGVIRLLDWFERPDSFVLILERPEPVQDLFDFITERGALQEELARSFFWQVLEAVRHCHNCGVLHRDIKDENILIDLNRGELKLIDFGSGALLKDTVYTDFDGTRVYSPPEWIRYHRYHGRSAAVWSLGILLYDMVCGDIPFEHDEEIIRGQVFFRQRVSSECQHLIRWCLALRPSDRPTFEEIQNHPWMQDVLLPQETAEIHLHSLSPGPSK"}, "FGFR1 (human)": {"molecular_target": "FGFR1 (human) (UniProt P11362)"}, "[2]": {"system": "SGK1 (human), O00141 [S422D]", "sequence (O00141 whole entry S422D, looked up)": "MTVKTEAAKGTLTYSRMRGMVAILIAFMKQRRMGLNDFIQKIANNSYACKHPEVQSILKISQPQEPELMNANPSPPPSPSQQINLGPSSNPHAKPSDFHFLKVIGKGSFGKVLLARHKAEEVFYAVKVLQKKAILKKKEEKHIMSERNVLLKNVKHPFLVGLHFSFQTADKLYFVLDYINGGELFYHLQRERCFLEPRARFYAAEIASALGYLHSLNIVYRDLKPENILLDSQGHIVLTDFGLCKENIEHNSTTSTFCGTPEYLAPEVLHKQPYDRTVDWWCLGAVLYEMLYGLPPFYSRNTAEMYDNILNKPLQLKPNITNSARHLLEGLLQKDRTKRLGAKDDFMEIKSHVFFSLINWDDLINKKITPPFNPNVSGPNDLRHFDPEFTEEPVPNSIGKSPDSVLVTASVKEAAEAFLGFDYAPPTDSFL"}, "CSK (human)": {"molecular_target": "CSK (human) (UniProt P41240)"}, "PLK1 (human)": {"molecular_target": "PLK1 (human) (UniProt P53350)"}, "INSR (human)": {"molecular_target": "INSR (human) (UniProt P06213)"}, "TBK1 (human)": {"molecular_target": "TBK1 (human) (UniProt Q9UHD2)"}},
  "data": [
    {"compound": "C/C(=C1/C(=O)Nc2ccc(NC(N)=O)cc21)c1ccc[nH]1", "values": [
      {"measurement": "residual activity", "setting": "[1]; compound 0.001 µM", "result": 95, "unit": "%"},
      {"measurement": "residual activity", "setting": "[1]; compound 0.01 µM", "result": 91, "unit": "%"},
      {"measurement": "residual activity", "setting": "[1]; compound 0.1 µM", "result": 83, "unit": "%"},
      {"measurement": "residual activity", "setting": "RPS6KA3 KD1 KD2 (human); compound 0.001 µM", "result": 82, "unit": "%"},
      {"measurement": "residual activity", "setting": "RPS6KA3 KD1 KD2 (human); compound 0.01 µM", "result": 65, "unit": "%"},
      {"measurement": "residual activity", "setting": "RPS6KA3 KD1 KD2 (human); compound 0.1 µM", "result": 19, "unit": "%"},
      {"measurement": "residual activity", "setting": "BRSK2 (human); compound 0.001 µM", "result": 59, "unit": "%"},
      {"measurement": "residual activity", "setting": "BRSK2 (human); compound 0.01 µM", "result": 21, "unit": "%"},
      {"measurement": "residual activity", "setting": "BRSK2 (human); compound 0.1 µM", "result": 12, "unit": "%"},
      {"measurement": "residual activity", "setting": "CDK2 CCNA2 (human); compound 0.001 µM", "result": 102, "unit": "%"},
      {"measurement": "residual activity", "setting": "CDK2 CCNA2 (human); compound 0.01 µM", "result": 87, "unit": "%"},
      {"measurement": "residual activity", "setting": "CDK2 CCNA2 (human); compound 0.1 µM", "result": 85, "unit": "%"},
      {"measurement": "residual activity", "setting": "CSNK1D (human); compound 0.001 µM", "result": 94, "unit": "%"},
      {"measurement": "residual activity", "setting": "CSNK1D (human); compound 0.01 µM", "result": 94, "unit": "%"},
      {"measurement": "residual activity", "setting": "CSNK1D (human); compound 0.1 µM", "result": 89, "unit": "%"},
      {"measurement": "residual activity", "setting": "MYLK (human); compound 0.001 µM", "result": 90, "unit": "%"},
      {"measurement": "residual activity", "setting": "MYLK (human); compound 0.01 µM", "result": 89, "unit": "%"},
      {"measurement": "residual activity", "setting": "MYLK (human); compound 0.1 µM", "result": 65, "unit": "%"},
      {"measurement": "residual activity", "setting": "MELK (human); compound 0.001 µM", "result": 86, "unit": "%"},
      {"measurement": "residual activity", "setting": "MELK (human); compound 0.01 µM", "result": 47, "unit": "%"},
      {"measurement": "residual activity", "setting": "MELK (human); compound 0.1 µM", "result": 9, "unit": "%"},
      {"measurement": "residual activity", "setting": "PIM3 (human); compound 0.001 µM", "result": 96, "unit": "%"},
      {"measurement": "residual activity", "setting": "PIM3 (human); compound 0.01 µM", "result": 73, "unit": "%"},
      {"measurement": "residual activity", "setting": "PIM3 (human); compound 0.1 µM", "result": 25, "unit": "%"},
      {"measurement": "residual activity", "setting": "MAPK12 (human); compound 0.001 µM", "result": 89, "unit": "%"},
      {"measurement": "residual activity", "setting": "MAPK12 (human); compound 0.01 µM", "result": 87, "unit": "%"},
      {"measurement": "residual activity", "setting": "MAPK12 (human); compound 0.1 µM", "result": 82, "unit": "%"},
      {"measurement": "residual activity", "setting": "MAPK8 (human); compound 0.001 µM", "result": 114, "unit": "%"},
      {"measurement": "residual activity", "setting": "MAPK8 (human); compound 0.01 µM", "result": 117, "unit": "%"},
      {"measurement": "residual activity", "setting": "MAPK8 (human); compound 0.1 µM", "result": 106, "unit": "%"},
      {"measurement": "residual activity", "setting": "SYK (human); compound 0.001 µM", "result": 100, "unit": "%"},
      {"measurement": "residual activity", "setting": "SYK (human); compound 0.01 µM", "result": 104, "unit": "%"},
      {"measurement": "residual activity", "setting": "SYK (human); compound 0.1 µM", "result": 97, "unit": "%"},
      {"measurement": "residual activity", "setting": "FLT1 (human); compound 0.001 µM", "result": 95, "unit": "%"},
      {"measurement": "residual activity", "setting": "FLT1 (human); compound 0.01 µM", "result": 50, "unit": "%"},
      {"measurement": "residual activity", "setting": "FLT1 (human); compound 0.1 µM", "result": 13, "unit": "%"},
      {"measurement": "residual activity", "setting": "INSRR (human); compound 0.001 µM", "result": 91, "unit": "%"},
      {"measurement": "residual activity", "setting": "INSRR (human); compound 0.01 µM", "result": 75, "unit": "%"},
      {"measurement": "residual activity", "setting": "INSRR (human); compound 0.1 µM", "result": 47, "unit": "%"},
      {"measurement": "residual activity", "setting": "PIM1 (human); compound 0.001 µM", "result": 97, "unit": "%"},
      {"measurement": "residual activity", "setting": "PIM1 (human); compound 0.01 µM", "result": 98, "unit": "%"},
      {"measurement": "residual activity", "setting": "PIM1 (human); compound 0.1 µM", "result": 69, "unit": "%"},
      {"measurement": "residual activity", "setting": "FGFR1 (human); compound 0.001 µM", "result": 96, "unit": "%"},
      {"measurement": "residual activity", "setting": "FGFR1 (human); compound 0.01 µM", "result": 61, "unit": "%"},
      {"measurement": "residual activity", "setting": "FGFR1 (human); compound 0.1 µM", "result": 18, "unit": "%"},
      {"measurement": "residual activity", "setting": "[2]; compound 0.001 µM", "result": 98, "unit": "%"},
      {"measurement": "residual activity", "setting": "[2]; compound 0.01 µM", "result": 86, "unit": "%"},
      {"measurement": "residual activity", "setting": "[2]; compound 0.1 µM", "result": 58, "unit": "%"},
      {"measurement": "residual activity", "setting": "CSK (human); compound 0.01 µM", "result": 97, "unit": "%"},
      {"measurement": "residual activity", "setting": "CSK (human); compound 0.1 µM", "result": 102, "unit": "%"},
      {"measurement": "residual activity", "setting": "PLK1 (human); compound 0.001 µM", "result": 86, "unit": "%"},
      {"measurement": "residual activity", "setting": "PLK1 (human); compound 0.01 µM", "result": 82, "unit": "%"},
      {"measurement": "residual activity", "setting": "PLK1 (human); compound 0.1 µM", "result": 72, "unit": "%"},
      {"measurement": "residual activity", "setting": "INSR (human); compound 0.01 µM", "result": 102, "unit": "%"},
      {"measurement": "residual activity", "setting": "INSR (human); compound 0.1 µM", "result": 110, "unit": "%"},
      {"measurement": "residual activity", "setting": "TBK1 (human); compound 0.001 µM", "result": 99, "unit": "%"},
      {"measurement": "residual activity", "setting": "TBK1 (human); compound 0.01 µM", "result": 83, "unit": "%"},
      {"measurement": "residual activity", "setting": "TBK1 (human); compound 0.1 µM", "result": 43, "unit": "%"}
    ]}
  ]
}
